“And” between values parts separate entries of the source, which are not always exact repeats. Equal entries are not always repeated.
What was measured:
Type in all cases: in vivo
Settings in all cases: ten days after application
Chenopodium [1] = assay: Example B1: post-emergent application of herbicide of formula I with/without safener, greenhouse, Chenopodium
Wheat = assay: Example B1: post-emergent application of herbicide of formula I with/without safener, greenhouse, wheat
Protocol: Post-emergent Applications of Mixtures of a Herbicide of Formula I with a Safener of Formulae IIa to IIq to Cereals
(§1) Under greenhouse conditions, wheat is grown in plastic pots to the 2.5-leaf stage. In this stage, both the herbicide of formula I alone and the mixture of the herbicide with a safener of formulae IIa to IIq are applied to the test plants. The test substances (Formulation Examples F3 a) and b)) are applied as aqueous suspension with 500 l water/ha. Ten days after the application, the results are evaluated on a percent scale.

Emex [2] = assay: Example B1: post-emergent application of herbicide of formula I with/without safener, greenhouse, Emex
Raphanus [3] = assay: Example B1: post-emergent application of herbicide of formula I with/without safener, greenhouse, Raphanus
Setaria [4] = assay: Example B1: post-emergent application of herbicide of formula I with/without safener, greenhouse, Setaria
Setaria [5] = assay: Example B2: post-emergent application of herbicide of formula I with/without safener, greenhouse, Setaria
Chenopodium [6] = assay: Example B2: post-emergent application of herbicide of formula I with/without safener, greenhouse, Chenopodium
Raphanus [7] = assay: Example B2: post-emergent application of herbicide of formula I with/without safener, greenhouse, Raphanus
Barley = assay: Example B2: post-emergent application of herbicide of formula I with/without safener, greenhouse, barley
Protocol: Post-emergent Applications of Mixtures of a Herbicide of Formula I with a Safener of Formulae IIa to IIq to barley
as §1, with “barley” for “wheat”

Emex [8] = assay: Example B2: post-emergent application of herbicide of formula I with/without safener, greenhouse, Emex
Durum wheat = assay: Example B3: post-emergent application of herbicide of formula I with/without safener, greenhouse, durum wheat
Protocol: Post-emergent Applications of Mixtures of a Herbicide of Formula I with a Safener of Formulae IIa to IIq to Durum Wheat.
as §1, with “conditions, durum” for “conditions,”

Setaria [9] = assay: Example B3: post-emergent application of herbicide of formula I with/without safener, greenhouse, Setaria
Emex [10] = assay: Example B3: post-emergent application of herbicide of formula I with/without safener, greenhouse, Emex
Chenopodium [11] = assay: Example B3: post-emergent application of herbicide of formula I with/without safener, greenhouse, Chenopodium
Raphanus [12] = assay: Example B3: post-emergent application of herbicide of formula I with/without safener, greenhouse, Raphanus
[13] = Herbicide of formula 1 15 g/ha + safener 4 g/ha
[14] = Herbicide of formula 1 60 g/ha + safener 15 g/ha
[15] = Herbicide of formula 1 250 g/ha + safener 60 g/ha
[16] = Herbicide of formula 1 alone 15 g/ha
[17] = Herbicide of formula 1 alone 60 g/ha
[18] = Herbicide of formula 1 alone 250 g/ha

CCCCCC(C)OC(=O)COc1ccc(Cl)c2cccnc12 (stereo not shown) [Safener no. 1,01]
herbicidal effect on Chenopodium, percent scale (Chenopodium [1]; [13]): 90% | damage to Wheat, percent scale (Wheat; [13]): 5% | herbicidal effect on Emex, percent scale (Emex [2]; [13]): 90% | herbicidal effect on Raphanus, percent scale (Raphanus [3]; [13]): 80% | herbicidal effect on Setaria, percent scale (Setaria [4]; [13]): 70%

FC(F)(F)C(=NOCC1OCCO1)c1ccc(Cl)cc1 [Safener no. 6.02]
herbicidal effect on Chenopodium, percent scale (Chenopodium [1]; [14]): 80% | damage to Wheat, percent scale (Wheat; [14]): 10% | herbicidal effect on Setaria, percent scale (Setaria [5]; [14]): 80% | herbicidal effect on Emex, percent scale (Emex [2]; [14]): 90% | herbicidal effect on Raphanus, percent scale (Raphanus [3]; [14]): 80% | herbicidal effect on Setaria, percent scale (Setaria [4]; [14]): 80% | herbicidal effect on Chenopodium, percent scale (Chenopodium [6]; [14]): 80% | herbicidal effect on Raphanus, percent scale (Raphanus [7]; [14]): 80% | damage to Barley, percent scale (Barley; [14]): 30% | herbicidal effect on Emex, percent scale (Emex [8]; [14]): 90%

CCOC(=O)C1=NN(c2ccc(Cl)cc2Cl)C(C)(C(=O)OCC)C1 (stereo not shown) [Safener no. 3,03]
herbicidal effect on Chenopodium, percent scale (Chenopodium [1]; [13]): 90% | damage to Wheat, percent scale (Wheat; [13]): 5% | herbicidal effect on Setaria, percent scale (Setaria [5]; [14]): 80% | herbicidal effect on Emex, percent scale (Emex [2]; [13]): 90% | herbicidal effect on Raphanus, percent scale (Raphanus [3]; [13]): 80% | herbicidal effect on Setaria, percent scale (Setaria [4]; [13]): 70% | herbicidal effect on Chenopodium, percent scale (Chenopodium [6]; [14]): 80% | herbicidal effect on Raphanus, percent scale (Raphanus [7]; [14]): 80% | damage to Barley, percent scale (Barley; [14]): 30% | herbicidal effect on Emex, percent scale (Emex [8]; [14]): 90%

COC(=O)c1cc(-c2ccccc2)n(-c2ccccc2Cl)n1 [Safener no. 2,01]
damage to Durum wheat, percent scale (Durum wheat; [15]): 10% | herbicidal effect on Setaria, percent scale (Setaria [9]; [15]): 80% | herbicidal effect on Emex, percent scale (Emex [10]; [15]): 90% | herbicidal effect on Setaria, percent scale (Setaria [5]; [13]): 70% | herbicidal effect on Setaria, percent scale (Setaria [5]; [14]): 70% | herbicidal effect on Chenopodium, percent scale (Chenopodium [11]; [15]): 95% | herbicidal effect on Chenopodium, percent scale (Chenopodium [6]; [13]): 90% | herbicidal effect on Chenopodium, percent scale (Chenopodium [6]; [14]): 90% | herbicidal effect on Raphanus, percent scale (Raphanus [12]; [15]): 80% | herbicidal effect on Raphanus, percent scale (Raphanus [7]; [13]): 80% | herbicidal effect on Raphanus, percent scale (Raphanus [7]; [14]): 80% | damage to Barley, percent scale (Barley; [13]): 0% | damage to Barley, percent scale (Barley; [14]): 10% | herbicidal effect on Emex, percent scale (Emex [8]; [13]): 90% | herbicidal effect on Emex, percent scale (Emex [8]; [14]): 90%

CCOC(=O)c1nc(C(Cl)(Cl)Cl)n(-c2ccc(Cl)cc2Cl)n1 [Safener no. 2,05]
herbicidal effect on Setaria, percent scale (Setaria [5]; [14]): 80% | herbicidal effect on Chenopodium, percent scale (Chenopodium [6]; [14]): 90% | herbicidal effect on Raphanus, percent scale (Raphanus [7]; [14]): 90% | damage to Barley, percent scale (Barley; [14]): 30% | herbicidal effect on Emex, percent scale (Emex [8]; [14]): 90%

COc1nn(C(=O)NS(=O)(=O)c2ccccc2OC(F)(F)F)c(=O)n1C [Herbicide of formula 1]
herbicidal effect on Chenopodium, percent scale (Chenopodium [1]; [16]): 90% and 80% | herbicidal effect on Chenopodium, percent scale (Chenopodium [1]; [17]): 90% | damage to Durum wheat, percent scale (Durum wheat; [18]): 30% | herbicidal effect on Setaria, percent scale (Setaria [9]; [18]): 80% | damage to Wheat, percent scale (Wheat; [16]): 10% | damage to Wheat, percent scale (Wheat; [17]): 20% | herbicidal effect on Emex, percent scale (Emex [10]; [18]): 90% | herbicidal effect on Setaria, percent scale (Setaria [5]; [16]): 70% | herbicidal effect on Setaria, percent scale (Setaria [5]; [17]): 80% | herbicidal effect on Chenopodium, percent scale (Chenopodium [11]; [18]): 90% | herbicidal effect on Emex, percent scale (Emex [2]; [16]): 80% | herbicidal effect on Emex, percent scale (Emex [2]; [17]): 90% | herbicidal effect on Raphanus, percent scale (Raphanus [3]; [16]): 80% | herbicidal effect on Raphanus, percent scale (Raphanus [3]; [17]): 80% | herbicidal effect on Setaria, percent scale (Setaria [4]; [16]): 70% | herbicidal effect on Setaria, percent scale (Setaria [4]; [17]): 80% | herbicidal effect on Chenopodium, percent scale (Chenopodium [6]; [16]): 90% | herbicidal effect on Chenopodium, percent scale (Chenopodium [6]; [17]): 90% | herbicidal effect on Raphanus, percent scale (Raphanus [12]; [18]): 90% | herbicidal effect on Raphanus, percent scale (Raphanus [7]; [16]): 80% | herbicidal effect on Raphanus, percent scale (Raphanus [7]; [17]): 80% | damage to Barley, percent scale (Barley; [16]): 30% | damage to Barley, percent scale (Barley; [17]): 40% | herbicidal effect on Emex, percent scale (Emex [8]; [16]): 80% | herbicidal effect on Emex, percent scale (Emex [8]; [17]): 90%

Source: patent US20030050192A1, “Herbicidal composition” (priority 1998, published 2003)
